The results in this text go back to US9428487B2, “Heteroaromatic amides and thioamides as pesticides” (Bayer Intellectual Property GmbH, priority 2008, dated 2016).

Series [1] concerns green peach aphid (Myzus persicae). In words: Myzus test. The format is in vivo. Conditions: application rate 500 g/ha, spray on Chinese cabbage leaf slices, read-out: efficacy (aphids killed). How it is done: • Solvent: 78.0 parts by weight of acetone • 1.5 parts by weight of dimethylformamide • Emulsifier: 0.5 part by weight of alkylaryl polyglycol ether
To produce an appropriate active ingredient formulation, 1 part by weight of active ingredient is mixed with the amounts of solvent and emulsifier specified and the concentrate is diluted to the desired concentration with emulsifier-containing water.
Chinese cabbage leaf slices (Brassica pekinensis) infested by all stages of the green peach aphid (Myzus persicae) are sprayed with an active ingredient formulation of the desired concentration.
After the desired time, the efficacy in % is determined 100% means that all aphids have been killed; 0% means that no aphids have been killed.

A short description of series [2]: Determination of log P values by HPLC on reversed-phase column (formic acid method). It counts as physicochemical. Conditions: reversed-phase HPLC column (C 18), pH 3.4, HPLC, reversed-phase C 18, acidic range (pH 3.4), formic acid eluents, 55° C.; read-out: logP (HCOOH). The protocol:
1) Description of Method for Determining the Log P Values (Formic Acid Method)
The log P values reported in the table were determined according to EEC-Directive 79/831 Annex V.A8 by HPLC (High Performance Liquid Chromatography) on a reversed-phase column (C 18). […]
Eluent A: acetonitrile+1 ml of formic acid/liter. Eluent B: water+0.9 ml of formic acid/liter.
Gradient: from 10% eluent A/90% eluent B to 95% eluent A/5% eluent B in 4.25 min
The calibration was effected with unbranched alkan-2-ones (with 3 to 16 carbon atoms), whose log P values are known (determination of the log P values on the basis of the retention times by linear interpolation between two successive alkanones). The lambda-max values were determined with reference to the UV spectra from 200 nm to 400 nm in the maxima of the chromatographic signals.

For `Cc1nc(-c2cccnc2)sc1C(=O)NCC1CCCO1` (centres unmarked) [Compound 103], the pest or weed control at 500 g/ha in series [1] is at least 70%. The chromatographic logP in series [2] amounted to 1.4.
The matching figures for `CCc1nccc(CNC(=O)c2cnc(-c3cccnc3)s2)n1` [Compound 176]: at least 70% and 1.19.
The matching figures for `CCN(CC#N)C(=O)c1cnc(-c2cccnc2)s1` [Compound 137]: at least 70% and 1.28.
Take `Cc1cc(CN(C)C(=O)c2cnc(-c3cccnc3)s2)nn1C` [Compound 161]: in series [1], the pest or weed control at 500 g/ha is at least 70%. The chromatographic logP in series [2] was found to be 1.26.
The matching figures for `Cc1nc(-c2cccnc2)sc1C(=O)N(C)Cc1ncccn1` [Compound 91]: at least 70% and 1.02.
The matching figures for `Cc1nc(-c2cccnc2)sc1C(=O)NC(C)(C)C(F)(F)F` [Compound 182]: at least 70% and 2.24.
Consider `Cn1nc(-c2cccnc2)cc1C(=O)NCc1ncccn1` [Compound 28], for which the pest or weed control at 500 g/ha in series [1] is at least 70%. Besides, the chromatographic logP in series [2] came out at 0.25.
The matching figures for `Cc1cnc(CNC(=O)c2sc(-c3cccnc3)nc2C)cn1` [Compound 77]: at least 70% and 1.15.
`Cc1nc(-c2cccnc2)sc1C(=O)N[C@@H]1C[C@@H]1F` [Compound 83]: the pest or weed control at 500 g/ha in series [1] was at least 70%. Moreover, the chromatographic logP in series [2] was 1.16.
The matching figures for `Cc1nc(-c2cccnc2)sc1C(=O)N(C)CC(=O)OC(C)C` [Compound 162]: at least 70% and 1.78.
The matching figures for `Cc1nc(-c2cncc(Cl)c2)sc1C(=O)NCC(F)(F)F` [Compound 14]: at least 70% and 2.5.
As to `Cc1nc(-c2cccnc2)sc1C(=O)NN(C)Cc1ccccn1` [Compound 200], the pest or weed control at 500 g/ha in series [1] is at least 70%. Moreover, the chromatographic logP in series [2] is 1.01.
The matching figures for `Cc1cc(CN(C)C(=O)c2sc(-c3cccnc3)nc2C)no1` [Compound 164]: at least 70% and 1.52.
The matching figures for `Cc1nc(-c2cccnc2)sc1C(=O)NCC1OCC(CCl)O1` (centres unmarked) [Compound 132]: at least 70% and 1.51.
The matching figures for `Cc1nc(-c2cccnc2)sc1C(=O)NCC(F)(F)Br` [Compound 121]: at least 70% and 1.98.
With `Cc1nc(-c2cccnc2)sc1C(=O)NC1(C#N)CC1` [Compound 66], the pest or weed control at 500 g/ha in series [1] was at least 70%. Moreover, the chromatographic logP in series [2] was 1.2.
The matching figures for `CCOC1(NC(=O)c2sc(-c3cccnc3)nc2C)CC1` [Compound 144]: at least 70% and 1.45.
Take `Cc1nc(-c2cccnc2)sc1C(=O)N[C@H]1C[C@@H]1F` [Compound 54]: the pest or weed control at 500 g/ha in series [1] was at least 70%. In series [2], the chromatographic logP came to 1.16.
For the compound `Cc1nc(-c2cccnc2)sc1C(=O)NCC1(C)CCCO1` (centres unmarked) [Compound 160], the pest or weed control at 500 g/ha in series [1] was at least 70%. In addition, in series [2], the chromatographic logP came to 1.27.
The matching figures for `Cc1nc(-c2cccnc2)sc1C(=O)N(C)CCC#N` [Compound 163]: at least 70% and 1.1.
The matching figures for `COC(CNC(=O)c1sc(-c2cccnc2)nc1C)OC` [Compound 101]: at least 70% and 1.33.
For `Cc1nc(-c2cccnc2)sc1C(=O)N(C)CC(F)(F)F` [Compound 42], the pest or weed control at 500 g/ha in series [1] is at least 70%. For the same compound, in series [2], the chromatographic logP is 1.81.
Consider `Cc1nc(-c2cccnc2)sc1C(=O)NC(C)(C)C#N` [Compound 52], for which the pest or weed control at 500 g/ha in series [1] was at least 70%. Also, the chromatographic logP in series [2] is 1.48.
The matching figures for `Cc1nc(-c2cccnc2)sc1C(=O)NCC(C)F` (centres unmarked) [Compound 75]: at least 70% and 1.34.
For the compound `Cc1nc(-c2cccnc2)sc1C(=O)NCC1OCCCO1` [Compound 92], the pest or weed control at 500 g/ha in series [1] is at least 70%. Besides, the chromatographic logP in series [2] came to 1.27.
The matching figures for `O=C(NCC(F)(F)F)c1nnc(-c2cccnc2)s1` [Compound 32]: at least 70% and 1.53.
The matching figures for `COc1ccc(CN(CC(F)(F)F)C(=O)c2sc(-c3cccnc3)nc2C)cc1` [Compound 185]: at least 70% and 2.91.
The matching figures for `Cc1nc(-c2cccnc2)sc1C(=O)NC(C)(C)CS(C)(=O)=O` [Compound 114]: at least 70% and 1.28.
On to `CCOC(=O)CN(OC)C(=O)c1cnc(-c2cccnc2)s1` [Compound 178], for which the pest or weed control at 500 g/ha in series [1] was at least 70%. For the same compound, the chromatographic logP in series [2] stood at 1.65.
The matching figures for `Cc1nc(-c2cccnc2)sc1C(=O)N(C)CC(C)F` (centres unmarked) [Compound 80]: at least 70% and 1.5.
The matching figures for `Cc1nc(-c2cccnc2)sc1C(=O)NCc1ccc(Cl)nc1` [Compound 115]: at least 70% and 1.71.
Consider `Cn1nc(-c2cccnc2)cc1C(=O)NCC(F)F` [Compound 25], for which, in series [1], the pest or weed control at 500 g/ha was at least 70%. The chromatographic logP in series [2] amounted to 0.65.
The matching figures for `Cc1nc(-c2cccnc2)sc1C(=O)NC1(c2ncccn2)CC1` [Compound 193]: at least 70% and 1.21.
The matching figures for `Cc1nc(-c2cccnc2)sc1C(=O)NC(C)C(F)(F)F` (centres unmarked) [Compound 168]: at least 70% and 1.89.
As for `Cc1nc(-c2cccnc2)sc1C(=O)NCC1OCC(C)O1` (centres unmarked) [Compound 62], the pest or weed control at 500 g/ha in series [1] is at least 70%. For the same compound, the chromatographic logP in series [2] is 1.34.
The matching figures for `CCOC(CNC(=O)c1sc(-c2cccnc2)nc1C)OCC` [Compound 108]: at least 70% and 1.78.
The matching figures for `Cc1nc(-c2cccnc2)sc1C(=O)N(C)CCF` [Compound 85]: at least 70% and 1.23.
The matching figures for `Cc1nc(-c2cccnc2)sc1C(=O)NN1CCCCC1` [Compound 202]: at least 70% and 1.39.
As to `Cc1nc(-c2cccnc2)sc1C(=O)NCC(Cl)(Cl)Cl` [Compound 100], in series [1], the pest or weed control at 500 g/ha was at least 70%. Further, in series [2], the chromatographic logP came to 2.17.
Regarding `Cc1nc(-c2cccnc2)sc1C(=O)NCC1COC(C)(C)O1` (centres unmarked) [Compound 155], in series [1], the pest or weed control at 500 g/ha is at least 70%. Besides, the chromatographic logP in series [2] was 1.48.
The matching figures for `C=CC[n+]1cccc(-c2nc(C)c(C(=O)NCC(F)(F)F)s2)c1` [Compound 122]: at least 70% and 1.13.
As to `CCN(C)C(=O)c1cnc(-c2cccnc2)s1` [Compound 61], in series [1], the pest or weed control at 500 g/ha is at least 70%. The chromatographic logP in series [2] amounted to 1.23.
As to `COC1(NC(=O)c2cnc(-c3cccnc3)s2)CC1` [Compound 70], the pest or weed control at 500 g/ha in series [1] is at least 70%. For the same compound, the chromatographic logP in series [2] was 1.14.
